Experimental findings from patent US20100215635A1, “SMALL MOLECULES TO INDUCE WEIGHT LOSS OR TO REDUCE WEIGHT GAIN” (priority 2009, published 2010) are described below.

Format in all cases: in vivo, mouse
The test system of test [1] is ob/ob mice. The experiment in a line: Effect on body weight of ob/ob obese mice. The conditions noted are these: for Body weight gained: 4.5 mg/kg s.c. daily for 14 days; for Body weight: 4.5 mg/kg s.c. once daily for 14 days. An excerpt:
Leptin-deficient ob/ob obese diabetic inbred, adult female mice, weighing 32-36 g at arrival, specified pathogen free (SPF) hygienic category from Charles River VRF1, were used for these experiments. The ob/ob obese mouse is an extensively used animal model for the study of non-insulin-dependent-diabetes mellitus (NIDDM). The mutation was propagated in the C57BL/6J (BL/6) inbred strain. Homozygous obese (ob/ob) animals developed hyperglycemia, hyperinsulinemia and obesity. In these animals gluconeogenesis is enhanced despite their hyperinsulinemic state. The animals were kept in macrolon cages at 22-24° C. and 50-60% humidity, with lighting regimen of 12/12 h light dark. The animals had free access tap water and were fed with a sterilized standard diet (Charles River VRF1, autoclavable). The animals were cared for according to the “Guiding Principles for the Care and Use for Animals” based upon the Helsinki declaration. The ob/ob mice gained weight rapidly and develop a marked obesity by 5-6 weeks of age. […] When arrived they were 5 weeks old (when experiment was performed with CC1) or 4.5 weeks old (when experiment was performed with CC3 and CC19); the treatments started 8 days later in the experiment performed with CC1 and 10 days later in the experiment performed with CC3 and CC19. Experimental groups selected from C57/BL or ob/ob mice were injected subcutaneously at regular intervals once daily for 14 days with CCompound1, CCompound3, or CCompound19 at the dose of 4.5-mg per kg. Other groups selected from C57/BL or ob/ob mice remained untreated during the entire length of the experiment. Body weight was measured every day or every second day for 14 days and then on days 21, 40, and 48. All untreated and treated groups included 5 animals except the CCompound1-treated group of ob/ob mice that included 9 animals. The data are expressed as the average ±standard error of mean. On day 1, body weight was measured first followed by the treatment in the CCompound1-treated group. The treatments were repeated for 14 days with no additional treatment performed during the rest of the observation period. […] In contrast, CCompound1 treated mice gained 2.6-g body weight between day 1 and 14, and also only 2.6-g between day 14 and 48. On day 14 and the following days the differences in body weight were statistically highly significant (P<0.001). It is particularly important that between day 14 and 48, weight gain in the treated group was minimal compared to the control group despite discontinuation of the treatment. […] This feature allows intermittent use of CCompound1 and analogs for weight control. On day 1, first body weight was measured, followed by the treatments with CCompound3 (5 mice) or CCompound19 (5 mice) as indicated in TABLE 4. The treatments were repeated for 14 days with no additional treatment performed during the rest of the observation period. One group of animals (5 mice) served as untreated controls. […] Mice treated with CCompound3 gained 3.3-g body weight between day 1 and 15, and 6.8-g between day 15 and 48. Mice treated with CCompound19 gained 2.6-g body weight between day 1 and 15, and 4.2-g between day 15 and 48. […] Again, both CCompound3 and particularly CCompound19 were effective reducing weight between day 15 and 48 despite discontinuation of the treatment after the last treatment on day 15.

The subject of the next test is C57/BL mice. The experiment in a line: Effect on body weight of C57/BL (non-obese control) mice. The conditions noted are these: for Body weight gained: 4.5 mg/kg s.c. daily for 14 days; for Body weight: 4.5 mg/kg s.c. once daily for 14 days. The procedure:
C57BL6 male mice (10-11 weeks old) were used as non-obese controls of ob/ob mice. These animals were kept under specified pathogen free (SPF) condition and they were fed a standard sterilized diet (Charles River) ad libitum. Experimental groups selected from C57/BL or ob/ob mice were injected subcutaneously at regular intervals once daily for 14 days with CCompound1, CCompound3, or CCompound19 at the dose of 4.5-mg per kg. Other groups selected from C57/BL or ob/ob mice remained untreated during the entire length of the experiment. Body weight was measured every day or every second day for 14 days and then on days 21, 40, and 48. All untreated and treated groups included 5 animals except the CCompound1-treated group of ob/ob mice that included 9 animals. The data are expressed as the average ±standard error of mean. This mouse strain served as the control to the ob/ob mice. On day 1, body weight was measured first followed by the treatment in the CCompound1-treated group. The treatments were repeated for 14 days. […] CCompound1 treated mice also gained 2-g body weight between day 1 and 14, and 4.2-g between day 14 and 48. This small difference between the two groups was not statistically significant. In a follow up experiment using the same treatment regimen, C57/BL mice treated with 6-mg per kg dose of CCompound1 gained 5.6-g weight gain over a 40 days period compared to 5.8-g weight gain in the control group over the same time period. Again, this small difference was not statistically significant.

The test system of test [2] is ob/ob mice. The experiment in a line: Effect on body weight of ob/ob obese mice. The conditions noted are these: ob/ob mice (Example 3, Table 4), 4.5 mg/kg s.c. once daily for 14 days; day 20.
The mark [3] stands for this setting: ob/ob mice (Example 3), then no treatment, between day 15 and 48 (untreated 11.9 g).
Setting [4] is: ob/ob mice (Example 3), between day 1 and 15 (untreated 4.8 g).
[5] abbreviates: ob/ob mice (Example 3, Table 4), day 1 (before first treatment).
Where [6] appears, read: ob/ob mice (Example 3, Table 4), day 5.
The mark [7] stands for this setting: ob/ob mice (Example 3, Table 4), day 10.
[8] abbreviates: ob/ob mice (Example 3, Table 4), day 15.
The mark [9] stands for this setting: ob/ob mice (Example 3, Table 4), day 40, P < 0.001 vs no treatment.
Setting [10] is: ob/ob mice (Example 3, Table 4), day 48, P < 0.001 vs no treatment.

Take `Cc1c(OCC(O)C[N+](C)(C)C)cc2c(=O)c3ccccc3sc2c1C.[Cl-]` (centres unmarked) [CCcompound1, [3-(3,4-Dimethyl-9-oxo-9H-thioxanthen-2-yloxy)-2-hydroxypropyl]trimethyl-ammonium chloride]: the Body weight gained with ob/ob mice [1] (ob/ob mice, then no treatment, between day 14 and 48 (untreated 11.6 g)) was 2.6 g; in the test with ob/ob mice [1] (ob/ob mice, between day 1 and 14 (untreated 4.4 g)), 2.6 g; in the test with C57/BL mice (between day 1 and 14 (untreated 2 g)) it was 2 g; in the test on C57/BL mice (between day 14 and 48 (untreated 5.2 g; difference not statistically significant)), 4.2 g. Also, the Body weight worked out at 40.4 ± 0.7 g in the test with ob/ob mice [1] (ob/ob mice, day 1 (before first treatment)); 40.4 ± 0.6 g in the test on ob/ob mice [1] (ob/ob mice, day 2); 40.6 ± 0.6 g in the test with ob/ob mice [1] (ob/ob mice, day 3); 40.8 ± 0.6 g in the test with ob/ob mice [1] (ob/ob mice, day 4); 40.7 ± 0.6 g in the test with ob/ob mice [1] (ob/ob mice, day 5); 41.0 ± 0.6 g in the test with ob/ob mice [1] (ob/ob mice, day 6). Further, the Body weight is 41.5 ± 0.6 g in the test on ob/ob mice [1] (ob/ob mice, day 7); 41.9 ± 0.7 g in the test on ob/ob mice [1] (ob/ob mice, day 8); 42.1 ± 0.7 g with ob/ob mice [1] (ob/ob mice, day 9); 42.4 ± 0.7 g with ob/ob mice [1] (ob/ob mice, day 10); 42.6 ± 0.6 g in the test on ob/ob mice [1] (ob/ob mice, day 11); 42.7 ± 0.6 g in the test on ob/ob mice [1] (ob/ob mice, day 12). Also, the Body weight is on record as 42.9 ± 0.6 g in the test with ob/ob mice [1] (ob/ob mice, day 13); 43.0 ± 0.7 g in the test on ob/ob mice [1] (ob/ob mice, day 14, P < 0.001 vs no treatment); 44.3 ± 0.9 g with ob/ob mice [1] (ob/ob mice, day 19, P < 0.001 vs no treatment); 44.5 ± 0.8 g in the test with ob/ob mice [1] (ob/ob mice, day 21, P < 0.001 vs no treatment); 45.6 ± 1.1 g in the test on ob/ob mice [1] (ob/ob mice, day 45, P < 0.001 vs no treatment); 45.6 ± 1.1 g with ob/ob mice [1] (ob/ob mice, day 48, P < 0.001 vs no treatment). For the same molecule, the Body weight was 28.0 ± 0.7 g in the test with C57/BL mice (day 1 (before first treatment)); 27.7 ± 0.6 g in the test on C57/BL mice (day 2); 28.2 ± 0.7 g in the test with C57/BL mice (day 4); 28.7 ± 0.5 g in the test on C57/BL mice (day 6); 28.8 ± 0.4 g in the test on C57/BL mice (day 8); 29.6 ± 0.7 g in the test with C57/BL mice (day 10). Also, the Body weight came out at 30.3 ± 1.4 g in the test with C57/BL mice (day 12); 30.0 ± 0.9 g with C57/BL mice (day 14); 30.7 ± 1.1 g in the test with C57/BL mice (day 21); 33.9 ± 0.9 g with C57/BL mice (day 40); 34.2 ± 0.8 g in the test on C57/BL mice (day 48). In the test on C57/BL mice (dose range 4.5-6 mg per kg), the “Effect on body weight in normal mice” value was “no effects on the body weight”. Also, the Weight gain in the test with C57/BL mice (follow up experiment, 6 mg per kg, same regimen, over a 40 days period (control 5.8 g; not statistically significant)) is 5.6 g.

Turning to `CC[N+](C)(CC)CCOCc1ccc2sc3ccccc3c(=O)c2c1` [CCcompound3], the Body weight in the test on ob/ob mice [2] came to 42.2 ± 0.5 g; in the test on ob/ob mice [1] (setting [5]) it was 37.0 ± 0.6 g; with ob/ob mice [1] (setting [6]) it was 37.5 ± 1.2 g; in the test with ob/ob mice [1] (setting [7]), 38.5 ± 0.9 g; in the test on ob/ob mice [1] (setting [8]), 40.3 ± 1.1 g; with ob/ob mice [1] (setting [9]), 45.9 ± 0.8 g. The same molecule came in with a Body weight in the test with ob/ob mice [1] (setting [10]) of 47.1 ± 1.0 g. In addition, the Body weight gained with ob/ob mice [1] (setting [3]) was found to be 6.8 g; in the test on ob/ob mice [1] (setting [4]), 3.3 g.

For `C[N+](C)(C)CCC=C1c2ccccc2Sc2ccccc21.[I-]` [CCcompound19, N,N,N-trimethyl-3-(9H-thioxanthen-9-ylidene)-propane-1-aminium iodide], the Body weight amounted to 42.1 ± 0.9 g in the test with ob/ob mice [2]; 38.1 ± 0.6 g in the test with ob/ob mice [1] (setting [5]); 38.4 ± 0.7 g in the test with ob/ob mice [1] (setting [6]); 39.7 ± 0.4 g in the test with ob/ob mice [1] (setting [7]); 40.7 ± 0.5 g with ob/ob mice [1] (setting [8]); 43.8 ± 1.3 g in the test on ob/ob mice [1] (setting [9]). The molecule also returned a Body weight in the test on ob/ob mice [1] (setting [10]) of 44.9 ± 0.8 g. The Body weight gained in the test on ob/ob mice [1] (setting [3]) is on record as 4.2 g; in the test on ob/ob mice [1] (setting [4]), 2.6 g.
